Laboratory results reported in US20080249023A1 (priority 2004, published 2008).
Ends that are not written are not given here.

Legend:
[1] = tested on: sheep red blood cells
[2] = tested on: Bacillus subtilis; assay type: cell-based

Question: For “TRKKLFHIFHATIRSR [PAD-1.17, TRKKLFHIFHATIRSR]”, which “detergent-like (lytic) activity” value [1] is on record?
Answer: did not appear to act as a detergent

Question: RFARKGALRQKNV [Protein kinase C] was tested. Which “effect on Bacillus subtilis in time kill assay” value [2] did it give?
Answer: no effect
